Active and inactive are the calls of the source. The calls are words filed in the database; no cut-off is given here.
Experiments:
[1] = tested on: MDA-MB-231; experiment: Antiproliferative activity against human MDA-MB-231 cells after 72 hrs by SRB assay; settings: MDA-MB-231, 72 h
[2] = tested on: SNU-638; experiment: Antiproliferative activity against human SNU638 cells after 72 hrs by SRB assay; settings: SNU-638, 72 h
[3] = tested on: HCT-116; experiment: cells; settings: Homo sapiens, HCT-116, 72 h
[4] = tested on: SK-HEP1; experiment: Antiproliferative activity against human SKHEP1 cells after 72 hrs by SRB assay; settings: SK-HEP1, 72 h
[5] = tested on: A549; experiment: cells; settings: Homo sapiens, A549, 72 h
Description: Antiproliferative activity against human A549 cells after 72 hrs by SRB assay

[6] = molecular target: Phosphatidylinositol 4,5-bisphosphate 3-kinase catalytic subunit gamma isoform (Homo sapiens, UniProt P48736); experiment: Inhibition of N-terminal His6-tagged recombinant full-length human PI3Kgamma expressed in baculovirus infected Sf21 insect cells using PIP2 as substrate by HTRF […] assay
Sequence of Phosphatidylinositol 4,5-bisphosphate 3-kinase catalytic subunit gamma isoform (P48736 whole entry, canonical isoform): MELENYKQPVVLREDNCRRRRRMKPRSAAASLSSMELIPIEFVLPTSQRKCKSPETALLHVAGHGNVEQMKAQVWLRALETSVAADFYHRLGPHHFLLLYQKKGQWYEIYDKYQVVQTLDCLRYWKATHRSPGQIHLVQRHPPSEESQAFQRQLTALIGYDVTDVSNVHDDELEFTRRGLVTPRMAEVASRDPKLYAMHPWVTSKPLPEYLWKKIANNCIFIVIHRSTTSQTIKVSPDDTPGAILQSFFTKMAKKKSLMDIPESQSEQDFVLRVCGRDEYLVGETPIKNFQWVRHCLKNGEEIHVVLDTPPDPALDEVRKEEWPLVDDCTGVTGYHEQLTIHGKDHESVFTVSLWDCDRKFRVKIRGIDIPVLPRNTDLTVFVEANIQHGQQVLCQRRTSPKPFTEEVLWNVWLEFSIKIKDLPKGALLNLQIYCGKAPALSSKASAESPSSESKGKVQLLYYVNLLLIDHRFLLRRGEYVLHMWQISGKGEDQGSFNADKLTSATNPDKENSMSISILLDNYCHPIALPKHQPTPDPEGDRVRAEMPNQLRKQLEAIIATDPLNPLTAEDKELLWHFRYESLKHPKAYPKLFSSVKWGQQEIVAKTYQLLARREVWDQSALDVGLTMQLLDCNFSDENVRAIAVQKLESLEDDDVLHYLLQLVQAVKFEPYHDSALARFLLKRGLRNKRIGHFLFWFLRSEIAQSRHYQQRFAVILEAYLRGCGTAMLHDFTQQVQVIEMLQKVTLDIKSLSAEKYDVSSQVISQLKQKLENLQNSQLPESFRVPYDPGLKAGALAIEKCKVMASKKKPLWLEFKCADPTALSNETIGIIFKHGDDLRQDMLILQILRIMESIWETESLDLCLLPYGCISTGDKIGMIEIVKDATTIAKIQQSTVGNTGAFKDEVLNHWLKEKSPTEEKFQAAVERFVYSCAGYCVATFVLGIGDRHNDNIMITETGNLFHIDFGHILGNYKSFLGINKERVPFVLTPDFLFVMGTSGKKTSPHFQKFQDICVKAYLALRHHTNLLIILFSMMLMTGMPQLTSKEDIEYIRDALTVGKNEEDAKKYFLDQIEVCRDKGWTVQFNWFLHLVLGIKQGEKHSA

[7] = organism: Homo sapiens; experiment: Inhibition of PI3K in human HCT116 cells assessed as reduction in Akt phosphorylation at Ser473 residue after 24 hrs by Western blot analysis; type: cell-based
[8] = molecular target: Phosphatidylinositol 4,5-bisphosphate 3-kinase catalytic subunit beta isoform (Homo sapiens, UniProt P42338); experiment: Inhibition of PI3Kbeta (unknown origin) using PIP2 as substrate by HTRF […] assay
Sequence of Phosphatidylinositol 4,5-bisphosphate 3-kinase catalytic subunit beta isoform (P42338 whole entry, canonical isoform): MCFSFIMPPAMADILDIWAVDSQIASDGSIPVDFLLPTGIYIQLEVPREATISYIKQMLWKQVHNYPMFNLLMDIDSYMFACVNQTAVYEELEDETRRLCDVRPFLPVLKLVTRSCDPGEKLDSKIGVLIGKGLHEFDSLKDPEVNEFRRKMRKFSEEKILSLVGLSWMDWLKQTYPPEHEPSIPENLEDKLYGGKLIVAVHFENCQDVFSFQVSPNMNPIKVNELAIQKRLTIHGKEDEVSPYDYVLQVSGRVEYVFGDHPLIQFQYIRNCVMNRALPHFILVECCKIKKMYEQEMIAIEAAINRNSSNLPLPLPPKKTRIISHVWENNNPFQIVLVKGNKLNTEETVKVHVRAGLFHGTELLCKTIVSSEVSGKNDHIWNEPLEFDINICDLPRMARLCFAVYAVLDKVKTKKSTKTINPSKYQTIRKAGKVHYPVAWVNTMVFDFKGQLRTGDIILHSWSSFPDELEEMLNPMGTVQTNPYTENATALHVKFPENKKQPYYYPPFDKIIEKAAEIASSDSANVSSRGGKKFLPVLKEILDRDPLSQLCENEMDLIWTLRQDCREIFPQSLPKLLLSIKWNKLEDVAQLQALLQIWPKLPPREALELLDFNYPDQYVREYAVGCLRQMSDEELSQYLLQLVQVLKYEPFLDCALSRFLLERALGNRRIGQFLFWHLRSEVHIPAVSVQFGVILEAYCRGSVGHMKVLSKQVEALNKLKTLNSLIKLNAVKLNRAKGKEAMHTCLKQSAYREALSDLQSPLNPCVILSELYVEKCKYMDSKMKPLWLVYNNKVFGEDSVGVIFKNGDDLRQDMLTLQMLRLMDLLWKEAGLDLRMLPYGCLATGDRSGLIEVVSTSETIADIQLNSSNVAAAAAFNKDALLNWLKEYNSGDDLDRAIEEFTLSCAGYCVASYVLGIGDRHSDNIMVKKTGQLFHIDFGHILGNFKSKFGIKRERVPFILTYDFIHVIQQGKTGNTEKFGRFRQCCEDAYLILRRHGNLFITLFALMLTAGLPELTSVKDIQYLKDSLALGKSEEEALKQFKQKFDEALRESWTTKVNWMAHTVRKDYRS

[9] = organism: Homo sapiens; experiment: Inhibition of PI3K in human HCT116 cells assessed as reduction in Akt phosphorylation at Ser473 residue at 0.5 uM after 24 hrs by Western blot analysis; type: cell-based
[10] = molecular target: PI3-kinase p110-delta/p85-alpha (Homo sapiens, UniProt O00329); experiment: Inhibition of p110delta/p85alpha (unknown origin) using PIP2 as substrate by HTRF […] assay; type: protein-complex assay
Sequence of PI3-kinase p110-delta/p85-alpha (P27986 whole entry): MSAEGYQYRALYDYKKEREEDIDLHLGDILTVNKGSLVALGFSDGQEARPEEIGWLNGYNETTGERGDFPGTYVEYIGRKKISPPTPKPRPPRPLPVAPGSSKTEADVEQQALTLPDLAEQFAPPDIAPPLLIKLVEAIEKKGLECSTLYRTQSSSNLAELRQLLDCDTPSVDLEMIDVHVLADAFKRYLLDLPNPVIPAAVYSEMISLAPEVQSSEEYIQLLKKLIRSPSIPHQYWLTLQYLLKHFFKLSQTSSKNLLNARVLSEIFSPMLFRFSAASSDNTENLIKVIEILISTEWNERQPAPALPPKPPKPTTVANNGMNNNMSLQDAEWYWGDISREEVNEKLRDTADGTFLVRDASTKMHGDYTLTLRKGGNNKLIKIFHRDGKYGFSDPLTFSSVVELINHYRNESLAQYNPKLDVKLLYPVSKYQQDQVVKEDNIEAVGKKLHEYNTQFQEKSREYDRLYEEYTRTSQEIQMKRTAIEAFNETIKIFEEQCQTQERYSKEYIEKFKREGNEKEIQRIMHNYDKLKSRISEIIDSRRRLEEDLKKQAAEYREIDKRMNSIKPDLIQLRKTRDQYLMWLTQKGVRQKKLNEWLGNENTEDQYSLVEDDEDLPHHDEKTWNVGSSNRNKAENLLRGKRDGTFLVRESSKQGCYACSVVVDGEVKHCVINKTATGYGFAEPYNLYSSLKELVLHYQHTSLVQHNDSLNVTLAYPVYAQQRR
Sequence of PI3-kinase p110-delta/p85-alpha (O00329 whole entry): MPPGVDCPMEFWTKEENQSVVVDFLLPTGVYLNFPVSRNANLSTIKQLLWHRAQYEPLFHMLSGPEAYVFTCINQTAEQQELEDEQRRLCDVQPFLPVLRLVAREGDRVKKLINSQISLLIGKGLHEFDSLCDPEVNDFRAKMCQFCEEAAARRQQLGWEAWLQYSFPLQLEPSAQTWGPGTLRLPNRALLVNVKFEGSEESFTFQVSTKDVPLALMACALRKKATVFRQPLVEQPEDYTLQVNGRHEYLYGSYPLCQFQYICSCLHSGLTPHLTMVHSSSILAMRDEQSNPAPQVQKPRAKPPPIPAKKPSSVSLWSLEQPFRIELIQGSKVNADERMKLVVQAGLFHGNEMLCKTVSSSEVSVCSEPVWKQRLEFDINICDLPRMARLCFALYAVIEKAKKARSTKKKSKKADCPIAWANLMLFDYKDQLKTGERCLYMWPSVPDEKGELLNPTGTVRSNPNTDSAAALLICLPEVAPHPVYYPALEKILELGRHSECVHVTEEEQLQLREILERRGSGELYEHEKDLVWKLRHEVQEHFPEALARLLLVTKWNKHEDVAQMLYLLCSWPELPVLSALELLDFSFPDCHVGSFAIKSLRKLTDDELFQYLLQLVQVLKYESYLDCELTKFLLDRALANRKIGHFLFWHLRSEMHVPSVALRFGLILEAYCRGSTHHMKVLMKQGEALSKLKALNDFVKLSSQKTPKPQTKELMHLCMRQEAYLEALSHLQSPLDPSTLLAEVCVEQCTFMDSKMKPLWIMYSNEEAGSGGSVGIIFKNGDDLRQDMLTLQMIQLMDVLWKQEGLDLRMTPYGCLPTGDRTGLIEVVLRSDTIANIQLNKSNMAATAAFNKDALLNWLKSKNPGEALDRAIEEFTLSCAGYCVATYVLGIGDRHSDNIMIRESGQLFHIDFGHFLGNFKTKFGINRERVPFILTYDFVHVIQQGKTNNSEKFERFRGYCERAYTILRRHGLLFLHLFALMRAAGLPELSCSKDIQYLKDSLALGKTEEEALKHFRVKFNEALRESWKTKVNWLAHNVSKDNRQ

[11] = tested on: HUVEC; experiment: Cytotoxicity against HUVEC after 72 hrs by SRB assay; settings: Homo sapiens
[12] = molecular target: PI3-kinase p110-alpha/p85-alpha (Homo sapiens, UniProt P42336); experiment: Inhibition of N-terminal His6-tagged recombinant full-length human p110alpha/untagged recombinant full length human p85alpha expressed in baculovirus infected Sf21 insect cells using PIP2 as substrate by HTRF […] assay
Sequence of PI3-kinase p110-alpha/p85-alpha (P27986 whole entry): as the sequence (P27986 whole entry) above
Sequence of PI3-kinase p110-alpha/p85-alpha (P42336 whole entry): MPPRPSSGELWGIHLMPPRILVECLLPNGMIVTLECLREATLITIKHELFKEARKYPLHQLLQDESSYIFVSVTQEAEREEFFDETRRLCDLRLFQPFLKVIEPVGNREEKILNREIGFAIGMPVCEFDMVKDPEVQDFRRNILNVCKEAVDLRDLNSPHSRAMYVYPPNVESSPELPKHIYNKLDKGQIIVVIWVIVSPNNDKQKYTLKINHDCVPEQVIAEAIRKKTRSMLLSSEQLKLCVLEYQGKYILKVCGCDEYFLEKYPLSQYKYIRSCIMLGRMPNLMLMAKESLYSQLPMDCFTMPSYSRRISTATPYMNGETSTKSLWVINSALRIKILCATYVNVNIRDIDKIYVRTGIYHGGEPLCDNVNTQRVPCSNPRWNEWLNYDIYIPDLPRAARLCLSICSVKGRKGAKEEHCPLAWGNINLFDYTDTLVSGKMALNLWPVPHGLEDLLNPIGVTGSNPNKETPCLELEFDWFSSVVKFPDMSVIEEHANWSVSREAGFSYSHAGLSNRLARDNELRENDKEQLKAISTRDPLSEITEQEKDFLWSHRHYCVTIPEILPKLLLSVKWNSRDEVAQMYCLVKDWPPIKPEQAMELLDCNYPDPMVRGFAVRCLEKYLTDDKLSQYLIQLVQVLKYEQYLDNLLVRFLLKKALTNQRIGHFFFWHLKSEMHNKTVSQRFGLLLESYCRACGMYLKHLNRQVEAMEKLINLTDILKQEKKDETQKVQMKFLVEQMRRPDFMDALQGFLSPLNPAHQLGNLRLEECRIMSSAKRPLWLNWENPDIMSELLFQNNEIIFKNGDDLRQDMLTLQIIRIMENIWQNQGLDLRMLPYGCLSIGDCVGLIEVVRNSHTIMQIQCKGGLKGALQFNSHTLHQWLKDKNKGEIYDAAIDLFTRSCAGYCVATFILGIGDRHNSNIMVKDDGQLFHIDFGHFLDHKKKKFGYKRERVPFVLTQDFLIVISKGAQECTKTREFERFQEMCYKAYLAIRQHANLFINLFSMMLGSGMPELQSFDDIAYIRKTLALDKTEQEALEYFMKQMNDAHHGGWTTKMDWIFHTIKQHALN

| SMILES | IC50 [1] | IC50 [2] | IC50 [3] | IC50 [4] | IC50 [5] | IC50 [6] | inhibition [7] | IC50 [8] | inhibition [9] | IC50 [10] | IC50 [11] | IC50 [12] |
| --- | --- | --- | --- | --- | --- | --- | --- | --- | --- | --- | --- | --- |
| CCOC(=O)c1cc2cc(-c3cnc(OC)c(NS(=O)(=O)c4ccc(F)cc4)c3)ccc2[nH]1 | 150 nM | 15900 nM | 1300 nM | 300 nM | > 20000 nM | – | – | – | – | – | – | – |
| COc1ncc(-c2ccc3ncn(CCCn4cccn4)c(=O)c3c2)cc1NS(=O)(=O)c1ccc(F)cc1F | > 20000 nM | 360 nM | 4000 nM | > 20000 nM | 200 nM | – | – | – | – | – | – | – |
| CCOC(=O)Cn1cnc2ccc(-c3cnc(OC)c(NS(=O)(=O)c4ccc(F)cc4F)c3)cc2c1=O | 120 nM | 300 nM | 820 nM | 1400 nM | 100 nM | – | – | – | – | – | – | – |
| CCOC(=O)c1cnc2ccc(-c3cnc(OC)c(NS(=O)(=O)c4ccc(F)cc4F)c3)cn12 | 120 nM | 360 nM | 90 nM | 300 nM | 300 nM | – | – | – | – | – | – | – |
| COc1ncc(-c2ccc3ncc(C(=O)NCCN(C)C)n3c2)cc1NS(=O)(=O)c1ccc(F)cc1F | 1800 nM | 510 nM | 140 nM | > 20000 nM | 400 nM | – | – | – | – | – | – | – |
| COc1ncc(-c2ccc3ncc(C(=O)O)n3c2)cc1NS(=O)(=O)c1ccc(F)cc1F | 370 nM | 1460 nM | 1310 nM | 750 nM | 1150 nM | – | – | – | – | – | – | – |
| COc1ncc(-c2ccc3ncn(CCCCC(=O)N4CCOCC4)c(=O)c3c2)cc1NS(=O)(=O)c1ccc(F)cc1F | 1830 nM | > 20000 nM | 1110 nM | 2250 nM | 2540 nM | – | – | – | – | – | – | – |
| COc1ncc(-c2ccc3ncc(C(=O)NCCN4CCOCC4)n3c2)cc1NS(=O)(=O)c1ccc(F)cc1F | – | – | – | – | – | 45 nM | Dose-dependent effect | 89 nM | – | – | – | – |
| CCOC(=O)c1cnc2ccc(-c3cncc(NS(=O)(=O)c4ccccc4)c3)cn12 | 760 nM | 680 nM | 540 nM | 1090 nM | 260 nM | 104 nM | – | 59 nM | Active | – | – | – |
| CCOC(=O)c1cn2cc(-c3cnc(OC)c(NS(=O)(=O)c4ccc(F)cc4)c3)ccc2n1 | > 20000 nM | > 20000 nM | > 20000 nM | > 20000 nM | > 20000 nM | – | – | – | – | – | – | – |
| COc1ncc(-c2ccc3ncn(CCCN4CCOCC4)c(=O)c3c2)cc1NS(=O)(=O)c1ccc(F)cc1F | 500 nM | 280 nM | 200 nM | 600 nM | 100 nM | 116 nM | – | 108 nM | – | 69 nM | 8970 nM | 6.5 nM |
| COc1ncc(-c2ccc3ncn(CCCn4ccnc4)c(=O)c3c2)cc1NS(=O)(=O)c1ccc(F)cc1F | 11700 nM | 250 nM | 800 nM | > 20000 nM | 200 nM | – | – | – | – | – | – | – |
| CCOC(=O)c1cnc2ccc(-c3cnc(OC)c(NS(=O)(=O)c4ccc(F)cc4)c3)cn12 | 530 nM | > 20000 nM | 640 nM | > 20000 nM | 510 nM | – | – | – | – | – | – | – |
| COc1ncc(-c2ccc3ncn(CCCn4ccccc4=O)c(=O)c3c2)cc1NS(=O)(=O)c1ccc(F)cc1F | 150 nM | 2260 nM | 1360 nM | 810 nM | 570 nM | – | – | – | – | – | – | – |
| COc1ncc(-c2ccc3ncc(C(=O)N4CCC(O)CC4)n3c2)cc1NS(=O)(=O)c1ccc(F)cc1F | 630 nM | 270 nM | 490 nM | 790 nM | 480 nM | – | – | – | – | – | – | – |
| CCCCS(=O)(=O)Nc1cc(-c2ccc3ncc(C(=O)OCC)n3c2)cnc1OC | 2320 nM | 510 nM | 4940 nM | 830 nM | 3560 nM | – | – | – | – | – | – | – |
| COc1ncc(-c2ccc3ncc(C(=O)N4CCC(OC(=O)c5ccccc5)CC4)n3c2)cc1NS(=O)(=O)c1ccc(F)cc1F | 1450 nM | 1390 nM | 1230 nM | 2050 nM | 1620 nM | – | – | – | – | – | – | – |
| COc1ncc(-c2ccc3ncc(C(=O)NCc4ccncc4)n3c2)cc1NS(=O)(=O)c1ccc(F)cc1F | 420 nM | 490 nM | 310 nM | 980 nM | 500 nM | – | – | – | – | – | – | – |
| COc1ncc(-c2ccc3ncn(CCCCCC(=O)N4CCOCC4)c(=O)c3c2)cc1NS(=O)(=O)c1ccc(F)cc1F | 2150 nM | 19700 nM | 2230 nM | 11500 nM | 7600 nM | – | – | – | – | – | – | – |
| CCOC(=O)c1cnc2ccc(-c3cnc(OC)c(NS(C)(=O)=O)c3)cn12 | 190 nM | 90 nM | 320 nM | 170 nM | 230 nM | – | – | – | – | – | – | – |
| COc1ncc(-c2ccc3ncc(C(=O)NCCCN4CCOCC4)n3c2)cc1NS(=O)(=O)c1ccc(F)cc1F | 300 nM | 300 nM | 100 nM | 400 nM | 500 nM | 37 nM | – | 106 nM | – | 101 nM | 3560 nM | 3.8 nM |
